# Reference: ChEMBL document CHEMBL1201862, “PubChem BioAssay data set” (2004)
# Activity calls are given as the source filed them.
# Assays:
# HEK293 [1] = test: NOD1 signaling inhibitors, primary screen, cell-based, luminescence, uHTS (AID 1578); format: functional; settings: Homo sapiens
# HEK293 [2] = test: cells; format: functional, cell-based; settings: Homo sapiens
# HEK293 [3] = test: cells; format: functional, cell-based; settings: Homo sapiens; remark: listed apart in the source
# [4] = molecular target: Nucleotide-binding oligomerization domain-containing protein 2 (Homo sapiens, UniProt Q9HC29); test: NOD2 signaling inhibitors, cell-based, luminescence, uHTS, HEK293 (AID 1566); format: functional
# HEK293 [5] = test: NOD2 signaling inhibitors in MDP-stimulated cells, cell-based, uHTS, luminescence (AID 2001); format: functional; settings: Homo sapiens
# HEK293 [6] = test: cells; format: functional, cell-based; settings: Homo sapiens; remark: listed apart in the source
# [7] = HEp-2 cell cytotoxicity, dose response, cytotoxicity control for RSV inhibitor project, HTS (AID 2410); format: functional; settings: human respiratory syncytial virus
# cells [8] = test: cells
# [9] = molecular target: T1, Voltage-gated N-type calcium channel alpha-1B subunit/Amyloid beta A4 precursor protein-binding family A member 1 (Homo sapiens, UniProt Q00975+Q02410); format: protein assay
# [10] = molecular target: T1, Voltage-gated N-type calcium channel alpha-1B subunit/Amyloid beta A4 precursor protein-binding family A member 1; format: protein assay; remark: listed apart in the source
# [11] = molecular target: T1, Voltage-gated N-type calcium channel alpha-1B subunit/Amyloid beta A4 precursor protein-binding family A member 1; test: disruptors of Mint-PDZ/N-type channel peptide interaction – biochemical, HTRF, SAR follow-up (AID 2489); format: functional
# Coagulation factor XII = molecular target: T2, Coagulation factor XII (Homo sapiens, UniProt P00748); format: functional;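 also: activated factor XIIa alpha cleaving a fluorogenic AMC peptide substrate; inhibitor potency from loss of enzyme activity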
# T2 sequence (P00748 whole entry): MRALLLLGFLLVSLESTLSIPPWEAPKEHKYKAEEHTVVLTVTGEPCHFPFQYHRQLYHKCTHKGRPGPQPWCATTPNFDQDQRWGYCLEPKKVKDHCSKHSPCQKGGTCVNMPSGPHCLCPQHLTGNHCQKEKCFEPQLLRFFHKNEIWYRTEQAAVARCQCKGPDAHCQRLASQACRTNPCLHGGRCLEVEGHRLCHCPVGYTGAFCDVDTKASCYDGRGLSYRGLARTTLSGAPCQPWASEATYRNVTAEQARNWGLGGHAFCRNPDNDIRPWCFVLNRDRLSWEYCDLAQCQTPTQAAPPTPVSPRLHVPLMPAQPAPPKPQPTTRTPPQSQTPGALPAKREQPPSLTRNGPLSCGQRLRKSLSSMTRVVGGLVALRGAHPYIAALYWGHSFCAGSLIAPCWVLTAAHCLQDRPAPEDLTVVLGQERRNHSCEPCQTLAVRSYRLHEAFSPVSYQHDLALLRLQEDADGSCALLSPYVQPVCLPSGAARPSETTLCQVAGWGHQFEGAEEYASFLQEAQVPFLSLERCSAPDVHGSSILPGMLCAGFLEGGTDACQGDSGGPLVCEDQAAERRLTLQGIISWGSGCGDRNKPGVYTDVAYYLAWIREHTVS
# [12] = A Cell Based Secondary Assay To Explore Cytotoxicity of Compounds that Sensitize Mycobacterium Tuberculosis to Beta-Lactam Antibiotics.; format: functional
# [13] = NIH-3T3 fibroblast cytotoxicity, dose response, cytotoxicity control, cell-based, fluorescence, Alamar Blue, secondary assay (AID 2327); format: functional;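 also: NIH-3T3 mouse fibroblasts cultured with fluconazole at 8 µg/mL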
# [14] = C. albicans growth with fluconazole, confirmation, fluorescence, retest (AID 2467); format: functional, cell-based
# Cytochrome P450 3A4 = Cytochrome P450 3A4 (Homo sapiens, UniProt P08684);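 also: CYP3A4 tested as one member of a cytochrome P450 panel screen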
# Cytochrome P450 2C9 = Cytochrome P450 2C9 (Homo sapiens, UniProt P11712)
# [15] = Luminescence Cell-Based Dose Confirmation HTS to Identify Activators of 5'UTR Stem-Loop Driven Alpha-Synuclein mRNA Translation in H4 Neuroglioblastoma Cells. [Related pubchem assays: 1829 (Project Summary), 1814 (Primary HTS)]; format: functional
# [16] = Luminescence Cell-Based Dose Response HTS to Identify Activators of Luciferase Translation or Activity in H4 […] Cells. [Related pubchem assays: 1829 (Project Summary), 1814 (Primary HTS)]; format: functional
# H4 = test: Luminescence Cell-Based Dose Response HTS to Identify Activators of 5'UTR Stem-Loop Driven Prion Protein mRNA Translation in H4 Neuroglioblastoma Cells. [Related pubchem assays: 1829 (Project Summary), 1814 (Primary HTS)]; format: functional; settings: Homo sapiens
# [17] = inhibitors of intracellular T. cruzi replication, confirmation, NIH3T3 host cells, beta-gal luminescence (AID 2044); format: functional, cell-based;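 also: intracellular parasites grown in NIH/3T3 mouse fibroblasts as host cells; luminescent beta-galactosidase reporter signal from transgenic T. cruzi replicating inside host cells; inhibitors lower the luminescence signal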
# [18] = cytotoxicity toward NIH3T3 fibroblasts, dose response, counter-screen, cell-based, ATP luminescence, mouse fibroblasts (AID 2010); format: functional;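 also: cells exposed to compound for about 90 hours before reading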
# Vero = test: cells; format: functional; settings: Chlorocebus sabaeus
# cells [19] = test: cells; remark: listed apart in the source
# [20] = molecular target: T3, DNA repair and recombination protein RAD54-like (Homo sapiens, UniProt Q92698); test: inhibitors of human RAD54 branch migration, confirmation, biochemical, fluorescence, cherry-picked samples, dose series (AID 651657); format: functional
# T3 sequence (Q92698 whole entry): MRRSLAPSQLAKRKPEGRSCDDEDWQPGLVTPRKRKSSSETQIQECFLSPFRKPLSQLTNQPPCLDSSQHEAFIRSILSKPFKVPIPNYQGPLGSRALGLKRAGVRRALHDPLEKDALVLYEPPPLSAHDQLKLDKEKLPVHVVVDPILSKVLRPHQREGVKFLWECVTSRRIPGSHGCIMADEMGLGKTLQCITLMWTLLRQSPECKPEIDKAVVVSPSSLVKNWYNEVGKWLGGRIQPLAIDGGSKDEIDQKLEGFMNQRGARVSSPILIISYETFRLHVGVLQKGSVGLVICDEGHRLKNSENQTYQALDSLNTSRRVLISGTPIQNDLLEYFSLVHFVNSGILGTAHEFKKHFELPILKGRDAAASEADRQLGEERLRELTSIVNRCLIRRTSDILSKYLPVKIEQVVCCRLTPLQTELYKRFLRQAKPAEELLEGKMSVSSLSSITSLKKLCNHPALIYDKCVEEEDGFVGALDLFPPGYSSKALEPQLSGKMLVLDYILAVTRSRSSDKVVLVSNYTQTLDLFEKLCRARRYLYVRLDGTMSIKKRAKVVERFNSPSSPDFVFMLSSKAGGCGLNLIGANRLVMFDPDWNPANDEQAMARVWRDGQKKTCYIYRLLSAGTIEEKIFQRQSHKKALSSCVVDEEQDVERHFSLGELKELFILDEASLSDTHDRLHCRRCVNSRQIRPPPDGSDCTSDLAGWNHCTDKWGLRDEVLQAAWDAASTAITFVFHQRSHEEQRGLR
# [21] = molecular target: T4, DNA repair protein RAD52 homolog (Homo sapiens, UniProt P43351); format: functional, biochemical
# T4 sequence (P43351 whole entry): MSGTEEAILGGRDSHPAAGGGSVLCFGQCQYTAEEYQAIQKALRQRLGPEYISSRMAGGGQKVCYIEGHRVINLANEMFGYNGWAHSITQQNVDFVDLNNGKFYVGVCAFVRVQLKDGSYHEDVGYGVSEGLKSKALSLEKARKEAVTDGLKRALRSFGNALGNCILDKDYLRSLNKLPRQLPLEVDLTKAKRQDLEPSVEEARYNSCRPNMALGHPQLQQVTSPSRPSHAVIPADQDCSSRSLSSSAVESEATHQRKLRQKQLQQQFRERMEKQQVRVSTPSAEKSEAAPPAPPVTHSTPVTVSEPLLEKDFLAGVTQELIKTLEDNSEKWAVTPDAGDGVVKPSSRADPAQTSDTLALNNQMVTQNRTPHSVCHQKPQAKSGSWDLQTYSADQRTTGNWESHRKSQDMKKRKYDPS
# [22] = molecular target: T5, Replicative DNA helicase DnaB (Mycobacterium tuberculosis, UniProt P9WMR3); test: DnaB intein splicing inhibitors, dose response, biochemical, cell-free fluorescence (AID 449749); format: functional
# T5 sequence (P9WMR3 whole entry): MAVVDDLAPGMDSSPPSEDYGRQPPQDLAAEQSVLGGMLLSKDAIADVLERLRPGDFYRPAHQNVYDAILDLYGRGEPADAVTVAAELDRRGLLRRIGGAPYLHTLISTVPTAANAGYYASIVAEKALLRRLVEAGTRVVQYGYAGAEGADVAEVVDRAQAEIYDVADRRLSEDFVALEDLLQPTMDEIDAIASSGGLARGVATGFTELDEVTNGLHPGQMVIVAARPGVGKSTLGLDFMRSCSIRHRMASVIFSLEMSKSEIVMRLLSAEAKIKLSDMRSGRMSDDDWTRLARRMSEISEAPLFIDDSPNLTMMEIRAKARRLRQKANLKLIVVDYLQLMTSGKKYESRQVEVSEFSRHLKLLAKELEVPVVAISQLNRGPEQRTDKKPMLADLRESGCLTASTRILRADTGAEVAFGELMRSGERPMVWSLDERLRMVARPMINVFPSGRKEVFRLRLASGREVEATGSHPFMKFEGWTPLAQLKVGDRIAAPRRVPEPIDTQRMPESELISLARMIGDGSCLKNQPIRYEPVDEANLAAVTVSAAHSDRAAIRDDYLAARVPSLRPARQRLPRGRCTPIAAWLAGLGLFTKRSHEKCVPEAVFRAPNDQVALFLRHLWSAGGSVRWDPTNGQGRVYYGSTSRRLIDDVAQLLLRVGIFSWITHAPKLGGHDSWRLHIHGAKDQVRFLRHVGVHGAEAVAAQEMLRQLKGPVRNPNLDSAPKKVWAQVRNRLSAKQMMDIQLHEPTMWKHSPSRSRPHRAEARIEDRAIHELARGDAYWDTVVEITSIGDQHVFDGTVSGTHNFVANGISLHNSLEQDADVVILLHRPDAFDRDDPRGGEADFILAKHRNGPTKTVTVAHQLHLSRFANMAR
# Protein RecA = molecular target: T6, Protein RecA (Mycobacterium tuberculosis, UniProt P9WHJ3); test: Fluorescence Cell-Free Homogeneous Dose Retest to Identify Inhibitors of RecA-Intein Splicing Activity. [Related pubchem assays (depositor defined):AID2097, AID2223, AID489010, AID492950]; format: functional
# T6 sequence (P9WHJ3 whole entry): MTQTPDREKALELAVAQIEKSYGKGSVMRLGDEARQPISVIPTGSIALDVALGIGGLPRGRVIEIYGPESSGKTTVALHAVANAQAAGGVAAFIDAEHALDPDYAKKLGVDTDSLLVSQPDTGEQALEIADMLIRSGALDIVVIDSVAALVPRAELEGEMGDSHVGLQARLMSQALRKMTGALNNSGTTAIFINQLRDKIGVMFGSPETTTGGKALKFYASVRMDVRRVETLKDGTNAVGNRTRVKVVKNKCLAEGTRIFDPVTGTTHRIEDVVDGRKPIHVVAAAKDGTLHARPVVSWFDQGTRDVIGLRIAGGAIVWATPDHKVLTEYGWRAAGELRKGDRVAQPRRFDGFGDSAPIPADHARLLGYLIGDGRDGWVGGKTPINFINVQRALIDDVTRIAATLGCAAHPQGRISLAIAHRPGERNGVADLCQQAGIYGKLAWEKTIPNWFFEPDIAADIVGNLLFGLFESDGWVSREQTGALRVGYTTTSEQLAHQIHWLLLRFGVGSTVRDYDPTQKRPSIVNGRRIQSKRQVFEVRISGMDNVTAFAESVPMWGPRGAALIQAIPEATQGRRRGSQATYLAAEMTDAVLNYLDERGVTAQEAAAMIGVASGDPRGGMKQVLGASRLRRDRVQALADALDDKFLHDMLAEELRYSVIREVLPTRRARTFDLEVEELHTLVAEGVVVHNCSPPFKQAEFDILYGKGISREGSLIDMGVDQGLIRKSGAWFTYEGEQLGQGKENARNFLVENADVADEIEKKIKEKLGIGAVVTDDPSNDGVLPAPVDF
# T1 sequence (Q00975 whole entry): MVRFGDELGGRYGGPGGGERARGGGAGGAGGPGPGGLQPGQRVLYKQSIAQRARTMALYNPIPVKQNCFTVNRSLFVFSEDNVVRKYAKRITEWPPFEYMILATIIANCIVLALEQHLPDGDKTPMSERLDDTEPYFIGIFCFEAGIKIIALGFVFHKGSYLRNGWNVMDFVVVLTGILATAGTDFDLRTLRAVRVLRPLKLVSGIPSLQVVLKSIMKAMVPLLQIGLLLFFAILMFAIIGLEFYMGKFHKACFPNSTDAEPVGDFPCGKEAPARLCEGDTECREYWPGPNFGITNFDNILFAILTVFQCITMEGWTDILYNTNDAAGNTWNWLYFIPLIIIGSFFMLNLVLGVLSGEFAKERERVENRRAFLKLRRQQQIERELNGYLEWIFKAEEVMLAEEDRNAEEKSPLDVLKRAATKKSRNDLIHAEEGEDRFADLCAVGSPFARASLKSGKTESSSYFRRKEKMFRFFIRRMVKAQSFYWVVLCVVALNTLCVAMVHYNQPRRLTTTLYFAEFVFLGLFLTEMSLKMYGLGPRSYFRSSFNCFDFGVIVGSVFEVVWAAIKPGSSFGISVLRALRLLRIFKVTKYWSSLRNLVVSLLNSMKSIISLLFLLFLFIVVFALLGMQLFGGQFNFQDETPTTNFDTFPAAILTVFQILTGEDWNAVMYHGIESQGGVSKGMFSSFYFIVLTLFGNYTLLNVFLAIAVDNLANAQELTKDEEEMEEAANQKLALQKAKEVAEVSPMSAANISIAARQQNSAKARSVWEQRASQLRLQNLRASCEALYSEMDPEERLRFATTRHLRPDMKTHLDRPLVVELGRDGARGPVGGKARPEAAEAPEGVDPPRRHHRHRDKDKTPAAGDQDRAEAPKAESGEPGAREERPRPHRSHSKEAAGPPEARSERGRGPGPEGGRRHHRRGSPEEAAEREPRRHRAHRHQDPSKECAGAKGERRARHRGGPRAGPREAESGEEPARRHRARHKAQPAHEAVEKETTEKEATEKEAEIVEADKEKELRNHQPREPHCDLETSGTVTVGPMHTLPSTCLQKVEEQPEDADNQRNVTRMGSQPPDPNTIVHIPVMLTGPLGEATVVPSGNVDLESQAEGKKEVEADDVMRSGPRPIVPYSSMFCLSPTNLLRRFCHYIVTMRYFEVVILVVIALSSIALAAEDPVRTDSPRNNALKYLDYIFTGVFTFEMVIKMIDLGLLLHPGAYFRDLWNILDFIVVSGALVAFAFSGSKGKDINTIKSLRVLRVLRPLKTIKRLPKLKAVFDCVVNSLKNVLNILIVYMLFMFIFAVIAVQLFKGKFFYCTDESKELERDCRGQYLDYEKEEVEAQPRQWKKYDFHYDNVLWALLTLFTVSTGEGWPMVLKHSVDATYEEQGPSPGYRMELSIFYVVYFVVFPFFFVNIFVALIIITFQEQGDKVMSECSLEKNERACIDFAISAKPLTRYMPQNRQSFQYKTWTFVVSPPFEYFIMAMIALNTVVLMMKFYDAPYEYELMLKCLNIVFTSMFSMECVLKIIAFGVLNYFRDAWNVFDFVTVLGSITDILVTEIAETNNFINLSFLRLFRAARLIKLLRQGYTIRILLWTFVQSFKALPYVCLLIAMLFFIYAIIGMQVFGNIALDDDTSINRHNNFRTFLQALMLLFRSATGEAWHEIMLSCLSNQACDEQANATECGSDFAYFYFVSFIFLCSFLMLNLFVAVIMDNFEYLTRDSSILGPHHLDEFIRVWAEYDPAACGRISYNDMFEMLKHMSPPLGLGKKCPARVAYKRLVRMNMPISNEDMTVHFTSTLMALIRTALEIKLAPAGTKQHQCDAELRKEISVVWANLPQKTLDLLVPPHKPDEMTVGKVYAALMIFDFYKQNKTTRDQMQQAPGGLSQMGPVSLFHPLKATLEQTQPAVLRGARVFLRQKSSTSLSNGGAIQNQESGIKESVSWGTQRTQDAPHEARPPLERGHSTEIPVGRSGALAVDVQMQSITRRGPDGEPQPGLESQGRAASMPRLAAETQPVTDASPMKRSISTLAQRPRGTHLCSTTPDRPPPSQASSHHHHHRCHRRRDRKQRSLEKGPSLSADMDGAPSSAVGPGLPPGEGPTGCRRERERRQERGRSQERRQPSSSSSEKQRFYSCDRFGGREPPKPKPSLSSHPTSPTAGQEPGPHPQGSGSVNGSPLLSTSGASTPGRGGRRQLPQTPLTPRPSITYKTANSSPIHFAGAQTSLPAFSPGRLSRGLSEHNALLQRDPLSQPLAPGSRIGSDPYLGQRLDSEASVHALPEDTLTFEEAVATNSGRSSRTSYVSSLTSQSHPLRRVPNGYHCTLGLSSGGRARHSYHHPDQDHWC
# T1 sequence (Q02410 whole entry): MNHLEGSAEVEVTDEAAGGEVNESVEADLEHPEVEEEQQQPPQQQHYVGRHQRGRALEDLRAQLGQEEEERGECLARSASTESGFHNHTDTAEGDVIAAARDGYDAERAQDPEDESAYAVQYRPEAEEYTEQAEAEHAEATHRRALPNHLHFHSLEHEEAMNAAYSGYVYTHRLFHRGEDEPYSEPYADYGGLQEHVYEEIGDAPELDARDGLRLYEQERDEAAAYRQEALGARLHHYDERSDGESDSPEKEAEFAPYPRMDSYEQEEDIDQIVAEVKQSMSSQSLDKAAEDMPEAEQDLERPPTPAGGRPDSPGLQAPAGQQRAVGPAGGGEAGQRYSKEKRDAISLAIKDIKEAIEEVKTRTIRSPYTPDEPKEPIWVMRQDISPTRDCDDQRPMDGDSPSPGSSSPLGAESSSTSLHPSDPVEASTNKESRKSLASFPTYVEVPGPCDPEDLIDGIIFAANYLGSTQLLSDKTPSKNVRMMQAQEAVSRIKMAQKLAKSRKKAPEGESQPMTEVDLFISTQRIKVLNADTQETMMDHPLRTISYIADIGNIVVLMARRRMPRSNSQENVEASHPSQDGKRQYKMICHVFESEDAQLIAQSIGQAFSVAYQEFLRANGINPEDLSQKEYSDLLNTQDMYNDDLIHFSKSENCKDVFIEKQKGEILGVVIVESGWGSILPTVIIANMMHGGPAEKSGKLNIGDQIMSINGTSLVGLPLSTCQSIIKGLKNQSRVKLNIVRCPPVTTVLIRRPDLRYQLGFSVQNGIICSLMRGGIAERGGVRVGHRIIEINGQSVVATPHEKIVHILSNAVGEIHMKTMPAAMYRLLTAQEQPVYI
# Sequence of Cytochrome P450 3A4 (P08684 whole entry): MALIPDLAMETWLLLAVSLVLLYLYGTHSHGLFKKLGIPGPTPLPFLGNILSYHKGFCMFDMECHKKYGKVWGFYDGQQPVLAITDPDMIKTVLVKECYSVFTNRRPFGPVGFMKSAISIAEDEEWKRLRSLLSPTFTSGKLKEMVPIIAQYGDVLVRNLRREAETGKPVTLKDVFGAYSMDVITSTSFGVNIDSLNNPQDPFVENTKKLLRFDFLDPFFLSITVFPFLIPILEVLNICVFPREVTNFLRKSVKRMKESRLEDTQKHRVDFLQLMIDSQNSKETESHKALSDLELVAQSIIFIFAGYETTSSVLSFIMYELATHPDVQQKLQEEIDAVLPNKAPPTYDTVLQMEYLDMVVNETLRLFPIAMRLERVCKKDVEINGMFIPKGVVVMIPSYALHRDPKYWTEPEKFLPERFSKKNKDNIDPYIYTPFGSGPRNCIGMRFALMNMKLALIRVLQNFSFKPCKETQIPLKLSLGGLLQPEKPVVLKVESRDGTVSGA
# Sequence of Nucleotide-binding oligomerization domain-containing protein 2 (Q9HC29 whole entry, the tested form may be a part): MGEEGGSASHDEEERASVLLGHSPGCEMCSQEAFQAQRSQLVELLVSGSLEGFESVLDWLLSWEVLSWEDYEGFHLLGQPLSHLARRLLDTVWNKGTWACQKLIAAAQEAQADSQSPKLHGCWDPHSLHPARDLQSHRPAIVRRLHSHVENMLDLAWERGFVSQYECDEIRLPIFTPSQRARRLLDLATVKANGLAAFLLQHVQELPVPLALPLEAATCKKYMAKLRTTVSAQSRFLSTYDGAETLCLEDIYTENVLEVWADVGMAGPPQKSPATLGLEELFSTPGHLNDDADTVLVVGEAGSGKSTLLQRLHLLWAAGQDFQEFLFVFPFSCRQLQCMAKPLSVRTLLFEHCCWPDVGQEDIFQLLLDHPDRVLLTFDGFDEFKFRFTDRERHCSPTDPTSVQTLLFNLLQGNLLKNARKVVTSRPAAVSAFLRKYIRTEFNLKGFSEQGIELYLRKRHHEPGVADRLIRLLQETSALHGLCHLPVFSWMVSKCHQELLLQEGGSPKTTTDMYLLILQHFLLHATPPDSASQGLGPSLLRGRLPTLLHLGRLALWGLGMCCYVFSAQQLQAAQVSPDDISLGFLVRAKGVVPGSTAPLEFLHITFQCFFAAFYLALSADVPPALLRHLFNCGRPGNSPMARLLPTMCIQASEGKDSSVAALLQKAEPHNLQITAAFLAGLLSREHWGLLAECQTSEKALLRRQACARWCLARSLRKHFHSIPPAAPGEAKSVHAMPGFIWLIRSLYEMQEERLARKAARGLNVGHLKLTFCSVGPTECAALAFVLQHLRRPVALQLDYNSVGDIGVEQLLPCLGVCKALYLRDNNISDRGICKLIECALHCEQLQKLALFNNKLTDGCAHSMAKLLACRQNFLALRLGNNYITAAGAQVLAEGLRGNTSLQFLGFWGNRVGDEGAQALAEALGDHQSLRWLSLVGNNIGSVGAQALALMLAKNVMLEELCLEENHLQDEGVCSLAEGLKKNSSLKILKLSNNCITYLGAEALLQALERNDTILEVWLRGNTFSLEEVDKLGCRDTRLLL
smiles,measurement,setting,value
Cc1nc(N2CCC(C)CC2)c2c(C)c(C(=O)Nc3cc(F)ccc3C)sc2n1,EC50,HEK293 [1],> 20 µM (inactive)
same,IC50,HEK293 [2],> 20 µM (inactive)
same,IC50,HEK293 [3],> 20 µM (inactive)
same,EC50,[4],> 20 µM (inactive)
same,IC50,HEK293 [5],> 20 µM (inactive)
same,IC50,HEK293 [6],> 20 µM (inactive)
Oc1nc(COc2ccc(Br)cc2Cl)nc2ccccc12,CC50,[7],23.6 µM (active)
same,IC50,cells [8],30.7 µM (active)
C/C(=N\NC(=O)c1ccc(NS(=O)(=O)c2cccs2)cc1)c1ccc(C(C)(C)C)cc1,CC50,[7],20.6 µM (active)
same,IC50,cells [8],8.48 µM (active)
O=C(CSc1ccc(Cl)cc1)Nc1cccc(-c2nc3ccccc3[nH]2)c1,IC50,[9],2.75 µM (active)
same,IC50,[10],36.7 µM (active)
same,IC50,[11],26.9 µM (active)
CCc1c(C)nc(N)nc1N1N=C1SCC#N,IC50,Coagulation factor XII,> 50 µM (inactive)
NC(=O)[C@@H]1CC2(CC(c3cccc(NC(=O)COc4ccc(Cl)cc4)c3)=NO2)CN1C(=O)COc1ccc(Cl)cc1 (stereo not given in full),CC50,[12],> 40 µM (active)
Cc1cc(C(C#N)c2cccc(Cl)c2)n2ncnc2n1 (stereo not given),EC50,[13],> 160 µM (inactive)
same,EC50,[14],0.598 µM (active)
same,IC50,Coagulation factor XII,> 50 µM (inactive)
same,AC50,Cytochrome P450 3A4,14.1 µM (inconclusive)
same,AC50,Cytochrome P450 2C9,inconclusive
CC(CCc1ccc(O)cc1)NC(c1ccccc1)c1ccc(Cl)cc1 (stereo not given),CC50,[7],10.3 µM (active)
same,IC50,cells [8],11.8 µM (active)
O=C(NN(c1ccccc1)c1ccccc1)c1ccc([N+](=O)[O-])o1,EC50,[15],44.6 µM (active)
same,EC50,[16],> 120 µM (not active)
same,EC50,H4,> 120 µM (not active)
same,EC50,[17],< 0.1 µM (active)
same,EC50,[18],> 60 µM (not active)
same,CC50,Vero,17.4 µM (active)
same,EC50,cells [19],0.14 µM (active)
CN(C)CCCN(C(=O)c1ccco1)c1nc(-c2ccc(Cl)cc2)cs1,EC50,[17],< 0.1 µM (active)
same,EC50,[18],> 60 µM (not active)
same,CC50,Vero,> 25 µM (active)
same,AC50,[20],64.1 µM (active)
same,AC50,[21],17.3 µM (active)
same,EC50,cells [19],0.254 µM (active)
Cc1cc(Cl)ccc1OC(C)C(=O)NCCCCc1ccccc1 (stereo not given),CC50,[12],> 40 µM (active)
O=C1COc2ccc(C(=O)CCl)cc2N1,CC50,[12],31.8 µM (active)
same,AC50,[22],40.4 µM (active)
same,EC50,Protein RecA,26.3 µM (active)
COc1cccc(NC(=O)c2cc(-c3cccnc3)nc3c(Cl)cccc23)c1,CC50,[12],33.5 µM (active)
